Laboratory results from patent publication US9642889B2, “Macrocyclic inhibitors of Flaviviridae viruses” (Selcia Limited, priority 2012, dated 2017).

Assays:
[1] = tested on: Huh-7 HCV replicon cells (1b replicon); test: anti-HCV activity in Huh-7 cell line harboring a HCV replicon (luciferase readout); type: cell-based; conditions: Hepatitis C virus; for EC50: Huh-7, 72 h, inhibition of viral replication, Huh-7 HCV replicon cells, 3 days, read-out: EC50; for inhibition at 1 µM: Huh-7, read-out: Replicon 1b % inhibition at 1 μM, 1b replicon, 1 μM compound
cyclophilin A = cyclophilin A (Homo sapiens, UniProt P62937); test: Cyclophilin A TR-FRET competitive binding assay; conditions: competition with CsA-Cy5 for His-tagged CypA, two-hour incubation
Description: Cyclophilin A TR-FRET Competitive Binding Assay
Inhibitor potency was measured using a competitive binding assay with a time-resolved fluorescence resonance energy transfer (TR-FRET) readout. […] An IC50 value was calculated using a four-parameter logistic fit.

cyclophilin A, sequence (P62937 whole entry, species assumed): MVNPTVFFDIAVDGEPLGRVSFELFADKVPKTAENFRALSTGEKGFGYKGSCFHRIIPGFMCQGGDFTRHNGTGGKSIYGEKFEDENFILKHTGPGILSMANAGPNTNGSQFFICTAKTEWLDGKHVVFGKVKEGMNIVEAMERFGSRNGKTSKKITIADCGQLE

Row | SMILES | EC50 [1] [nM] | inhibition at 1 µM [1] [%] | IC50 (cyclophilin A) [nM]
1 | C[C@@H]1NC(=O)[C@H](C2CC2)OC(=O)C(C)(C)/C=C/c2ccc3ccc(nc3c2)[C@@H](C)NC(=O)[C@@H]2CCCN(N2)C1=O [Compound 78] | < 1000 | 99 | < 100
2 | C[C@@H]1NC(=O)[C@@H](C2CC2)OC(=O)C(C)(C)/C=C/c2ccc3ccc(nc3c2)[C@@H](C)NC(=O)[C@@H]2CCCN(N2)C1=O [Compound 79] | 1100 to 10000 | 3 | 1000 to 10000
3 | CC(C)C(=O)O[C@H]1CC[C@@]2(/C=C/c3ccc4ccc(nc4c3)[C@@H](C)NC(=O)[C@@H]3CCCN(N3)C(=O)[C@H](C)NC(=O)[C@H](C(C)C)OC2=O)CC1 [Compound 80] | < 1000 | 99 | < 100
4 | CC(C)C(=O)O[C@H]1CC[C@]2(/C=C/c3ccc4ccc(nc4c3)[C@@H](C)NC(=O)[C@@H]3CCCN(N3)C(=O)[C@H](C)NC(=O)[C@H](C(C)C)OC2=O)CC1 [Compound 81] | < 1000 | 100 | < 100
5 | CCCC(=O)O[C@H]1CC[C@]2(/C=C/c3ccc4ccc(nc4c3)[C@@H](C)NC(=O)[C@@H]3CCCN(N3)C(=O)[C@H](C)NC(=O)[C@H](C(C)C)OC2=O)CC1 [Compound 82] | < 1000 | 99 | < 100
6 | CON=C1CCC2(/C=C/c3ccc4ccc(nc4c3)[C@@H](C)NC(=O)[C@@H]3CCCN(N3)C(=O)[C@H](C)NC(=O)[C@H](C(C)C)OC2=O)CC1 (stereo partly drawn) [Compound 83] | < 1000 | 100 | < 100
7 | CC(C)[C@@H]1OC(=O)C2(/C=C/c3ccc4ccc(nc4c3)[C@@H](C)NC(=O)[C@@H]3CCCN(N3)C(=O)[C@H](C)NC1=O)CCN(C(=O)OC(C)(C)C)CC2 [Compound 84] | 1100 to 10000 | 10 | 1000 to 10000
8 | CC(C)[C@@H]1OC(=O)C2(/C=C/c3ccc4ccc(nc4c3)[C@@H](C)NC(=O)[C@@H]3CCCN(N3)C(=O)[C@H](C)NC1=O)CCN(S(C)(=O)=O)CC2 [Compound 85] | < 1000 | 98 | < 100
9 | C[C@@H]1NC(=O)[C@H]([C@@H](C)OC(C)(C)C)OC(=O)C(C)(C)/C=C/c2ccc3ccc(nc3c2)[C@@H](C)NC(=O)[C@@H]2CCCN(N2)C1=O [Compound 86] | < 1000 | 93 | 101 to 1000
10 | C[C@@H]1NC(=O)[C@H]([C@@H](C)O)OC(=O)C(C)(C)/C=C/c2ccc3ccc(nc3c2)[C@@H](C)NC(=O)[C@@H]2CCCN(N2)C1=O [Compound 87] | < 1000 | 61 | < 100
11 | CC(C)[C@@H]1OC(=O)C2(/C=C/c3ccc4ccc(nc4c3)[C@@H](C)NC(=O)[C@@H]3CCCN(N3)C(=O)[C@H](C)NC1=O)CCC(C)(O)CC2 (stereo partly drawn) [Compound 89] | < 1000 | 82 | < 100
12 | CC(C)[C@@H]1OC(=O)[C@@]2(/C=C/c3ccc4ccc(nc4c3)[C@@H](C)NC(=O)[C@@H]3CCCN(N3)C(=O)[C@H](C)NC1=O)CCOC(C)(C)C2 [Compound 90] | < 1000 | 99 | < 100
13 | CC(C)[C@@H]1OC(=O)[C@]2(/C=C/c3ccc4ccc(nc4c3)[C@@H](C)NC(=O)[C@@H]3CCCN(N3)C(=O)[C@H](C)NC1=O)CCOC(C)(C)C2 [Compound 91] | < 1000 | 100 | < 100
14 | C[C@@H]1NC(=O)[C@H](C2CC2)OC(=O)C2(/C=C/c3ccc4ccc(nc4c3)[C@@H](C)NC(=O)[C@@H]3CCCN(N3)C1=O)COCCOC2 [Compound 93] | < 1000 | 98 | < 100
15 | C[C@@H]1NC(=O)[C@H](C2COC2)OC(=O)C(C)(C)/C=C/c2ccc3ccc(nc3c2)[C@@H](C)NC(=O)[C@@H]2CCCN(N2)C1=O [Compound 95] | < 1000 | 88 | < 100
